From patent publication US20120202831A1, “Pharmaceutical Formulation” (SANOFI, priority 2009, published 2012) come the findings set out here.

Read-outs that look alike come from different tables or passages of the source.

What all share (format): physicochemical
Data set [1] can be described thus: solubility of the compound of formula (I) in media and formulations.
The nature of data set [2]: physical stability of the perfusion solution (no visible precipitation). Particulars: perfusion solution from compound of formula (I) in PEG alone.
A short description of data set [3]: chemical stability of formulations: impurity content by HPLC over time. To be noted: versus PS80 and PS80/ethanol formulations; especially 25° C./60% RH and 30° C./65% RH. The procedure: A study of chemical stability by measuring the impurity content by high performance liquid chromatography (HPLC) was carried out on the formulations making it possible to achieve the target solubility.

On to `CC(C)(C)NC(=O)Nc1nc2nc(Nc3ccc4nsnc4c3)ncc2cc1-c1c(Cl)cccc1Cl` [compound of formula (I)], for which the solubility is 9.5 mg/g in data set [1] (medium: PEG 400); 3.8 mg/g in data set [1] (medium: ethanol); 1 mg/g in data set [1] (medium: propylene glycol); 1.2 mg/g in data set [1] (medium: tert-butanol); under 0.006 mg/g in data set [1] (medium: water); at most 7000 µg/mL in data set [1] (organic solvent or mixture, dilution in PEG alone, read-out: solubility). Also, in data set [2], the “physical stability of the perfusion solution” value is on record as under 24 h. Further, the “chemical stability compared between formulations” value in data set [3] is recorded as “degrades less rapidly”.
